Measured values as given in ChEMBL document CHEMBL6121014, “Novel α-mangostin derivatives as promising antiviral agents: Isolation, synthesis, and evaluation against chikungunya virus” (Eur J Med Chem, 2025).
The source made the active and inactive calls. No cut-off for these calls is given here.

What was measured:
Vero = assay: (§1) Cytotoxicity against green monkey Vero cells assessed as reduction in cell viability at 24 to 48 hrs by MTT assay; type: toxicity, cell-based; set-up: Activity: concentration or dose not given beside the values; conditions: chlorocebus sabaeus, vero; time 24-48 hrs
[1] = as §1; type: toxicity, cell-based; set-up: Activity: concentration or dose not given beside the values; conditions: chlorocebus sabaeus, Vero cells; time 24-48 hrs
Chikungunya virus [2] = assay: Antiviral activity against CHIKV infected in green monkey Vero cells assessed as reduction in viral titer pretreated the cells with viral infection for 1 hr followed by compound addition and measured after 24 hrs by Foci forming unit assay; type: functional, organism-based
Chikungunya virus [3] = assay: Antiviral activity against CHIKV infected in green monkey Vero cells assessed as inhibition of viral entry by entry assay; type: functional, organism-based
Chikungunya virus [4] = assay: Antiviral activity against CHIKV infected in green monkey Vero cells assessed as inhibition of viral post entry by entry bypass assay; type: functional, organism-based
[5] = Selectivity ratio of IC50 for antiviral activity against CHIKV infected in green monkey Vero cells assessed as reduction in viral titer pretreated the cells with viral infection for 1 hr followed by compound addition and measured after 24 hrs by Foci forming unit assay to CC50 for cytotoxicity against green monkey Vero cells; type: toxicity, cell-based
Chikungunya virus [6] = assay: Antiviral activity against CHIKV infected in green monkey Vero cells assessed as reduction in viral titer pretreated with compound for 24 hrs followed by viral infection by Foci forming unit assay; type: functional, organism-based
Chikungunya virus [7] = assay: Antiviral activity against CHIKV infected in green monkey Vero cells assessed as reduction in viral titer at 12.5 to 50 uM pretreated the cells with viral infection for 1 hr followed by compound addition and measured after 24 hrs by Foci forming unit assay (reference value: 8.55 log10FFU/ml); type: functional; conditions: dose 12.5-50 µM
Chikungunya virus [8] = assay: Antiviral activity against CHIKV infected in green monkey Vero cells assessed as reduction in viral titer at 25 uM pretreated with compound for 24 hrs followed by viral infection by foci forming unit assay (reference value: 8.48 log10FFU/ml); type: functional
Chikungunya virus [9] = assay: Antiviral activity against CHIKV infected in green monkey Vero cells assessed as reduction in viral titer at 50 uM pretreated with compound for 24 hrs followed by viral infection by foci forming unit assay (reference value: 8.48 log10FFU/ml); type: functional
Chikungunya virus [10] = assay: Antiviral activity against CHIKV infected in green monkey Vero cells assessed as reduction in viral titer at 3.125 uM pretreated the cells with viral infection for 1 hr followed by compound addition and measured after 24 hrs by Foci forming unit assay (reference value: 8.55 log10FFU/ml); type: functional
Chikungunya virus [11] = assay: Antiviral activity against CHIKV infected in green monkey Vero cells assessed as reduction in viral titer at 6.25 uM pretreated with compound for 24 hrs followed by viral infection by Foci forming unit assay (reference value: 8.55 log10FFU/ml); type: functional
Chikungunya virus [12] = assay: Antiviral activity against CHIKV infected in green monkey Vero cells assessed as inhibition of infectious virus preincubated the cells for 45 mins followed by compound addition and measured after 1 to 6 hrs post infection by time of addition assay; type: functional, organism-based; conditions: time 1-6 hrs
Chikungunya virus [13] = assay: Antiviral activity against CHIKV infected in green monkey Vero cells assessed as inhibition of infectious virus preincubated the cells for 45 mins followed by compound addition and measured after 5 to 6 hrs post infection by time of addition assay; type: functional; set-up: scale not given: the % may be the effect or the level left; conditions: time 5-6 hrs
Chikungunya virus [14] = assay: Antiviral activity against CHIKV infected in green monkey Vero cells assessed as reduction in viral titer at 50 uM pretreated with compound for 24 hrs followed by viral infection by Foci forming unit assay (reference value: 8.81 log10FFU/ml); type: functional
Chikungunya virus [15] = assay: Antiviral activity against CHIKV infected in green monkey Vero cells assessed as reduction in viral titer at 6.25 uM pretreated with compound for 24 hrs followed by viral infection by Foci forming unit assay (reference value: 8.81 log10FFU/ml); type: functional, organism-based

## COc1c(OCC#Cc2ccccc2)cc2oc3cc4c(c(O)c3c(=O)c2c1CC=C(C)C)C=CC(C)(C)O4
Vero
  Activity: > 90%

## COc1c(OCc2cn(-c3ccccc3)nn2)cc2oc3cc4c(c(O)c3c(=O)c2c1CC=C(C)C)C=CC(C)(C)O4
Vero
  Activity: > 90%

## COc1c(OCc2cn(-c3cc(C)ccc3C)nn2)cc2oc3cc4c(c(O)c3c(=O)c2c1CC=C(C)C)C=CC(C)(C)O4
Vero
  Activity: > 90%

## COc1c(OCC#Cc2ccc(C(C)=O)cc2)cc2oc3cc4c(c(O)c3c(=O)c2c1CC=C(C)C)C=CC(C)(C)O4
[1]
  CC50: 194 µM
Vero
  Activity: > 90%
Chikungunya virus [2]
  IC50: 304 nM
Chikungunya virus [3]
  Activity: Active
Chikungunya virus [4]
  Activity: Active; Highest Inhibitory Effect Observed
[5]
  selectivity ratio at 24 h: 637

## COc1c(OCC(=O)N2CCN(S(=O)(=O)c3ccc(F)cc3)CC2)cc2oc3cc4c(c(O)c3c(=O)c2c1CC=C(C)C)C=CC(C)(C)O4
[1]
  CC50: 191 µM
Vero
  Activity: > 90%
Chikungunya virus [6]
  IC50: 7.71 µM
Chikungunya virus [2]
  IC50: 26200 nM
Chikungunya virus [7]
  Activity: 7.37 log10FFU/ml
Chikungunya virus [8]
  Activity: 7.21 log10FFU/ml
Chikungunya virus [9]
  Activity: 7.13 log10FFU/ml
[5]
  selectivity ratio at 24 h: 7.3

## COc1c(OCc2cn(-c3ccc(C)cc3C)nn2)cc2oc3cc4c(c(O)c3c(=O)c2c1CC=C(C)C)C=CC(C)(C)O4
Vero
  Activity: > 90%

## COc1c(OCC(=O)N2CCN(S(=O)(=O)c3ccc(C#N)cc3)CC2)cc2oc3cc4c(c(O)c3c(=O)c2c1CC=C(C)C)C=CC(C)(C)O4
[1]
  CC50: 223 µM
Vero
  Activity: > 90%
Chikungunya virus [2]
  IC50: 1880 nM
Chikungunya virus [10]
  Activity: 7.44 log10FFU/ml
[5]
  selectivity ratio at 24 h: 119

## C#CCOc1cc2oc3cc4c(c(O)c3c(=O)c2c(CC=C(C)C)c1OC)C=CC(C)(C)O4
Vero
  Activity: > 90%

## COc1c(O)cc2oc3cc(O)c(CC=C(C)C)c(O)c3c(=O)c2c1CC=C(C)C [MANGOSTIN]
[1]
  CC50: 15.4 µM
Vero
  Activity: > 90%
Chikungunya virus [2]
  IC50: 2200 nM
Chikungunya virus [11]
  Activity: 7.28 log10FFU/ml
Chikungunya virus [10]
  Activity: 7.37 log10FFU/ml

## COc1c(OCC#Cc2ccc(O)cc2)cc2oc3cc4c(c(O)c3c(=O)c2c1CC=C(C)C)C=CC(C)(C)O4
Vero
  Activity: > 90%
Chikungunya virus [12]
  Activity: Active

## C=C(C)C1Cc2c(cc3oc4cc(O)c(OC)c(CC=C(C)C)c4c(=O)c3c2O)O1 (stereo not given) [MANGOSTENONE F]
[1]
  CC50: 12.8 µM
Vero
  Activity: > 90%
Chikungunya virus [6]
  IC50: 21.8 µM
Chikungunya virus [2]
  IC50: 1960 nM
Chikungunya virus [10]
  Activity: 7.42 log10FFU/ml
[5]
  selectivity ratio at 24 h: 6.54

## O=c1cc(-c2ccc(O)c(O)c2)oc2c(O)c(O)cc(O)c12 [HYPOLAETIN]
Vero
  Activity: > 90%

## COc1c(OCc2cn(-c3ccc(F)c(Cl)c3)nn2)cc2oc3cc4c(c(O)c3c(=O)c2c1CC=C(C)C)C=CC(C)(C)O4
Vero
  Activity: > 90%

## COc1c(OCc2cn(-c3ccc(Cl)cc3)nn2)cc2oc3cc4c(c(O)c3c(=O)c2c1CC=C(C)C)C=CC(C)(C)O4
[1]
  CC50: 59.7 µM
Vero
  Activity: > 90%
Chikungunya virus [2]
  IC50: 947 nM
Chikungunya virus [12]
  Activity: Active
Chikungunya virus [13]
  Activity: >90%
Chikungunya virus [3]
  Activity: Active
Chikungunya virus [4]
  Activity: Active
[5]
  selectivity ratio at 24 h: 63.1

## CC(C)=CCc1c(O)cc2oc3cc(O)c4c(c3c(=O)c2c1O)CCC(C)(C)O4
[1]
  CC50: 11.4 µM
Vero
  Activity: > 90%
Chikungunya virus [2]
  IC50: 4100 nM
Chikungunya virus [11]
  Activity: 7.43 log10FFU/ml
[5]
  selectivity ratio at 24 h: 2.79

## COc1c(OCc2cn(-c3cccc(F)c3F)nn2)cc2oc3cc4c(c(O)c3c(=O)c2c1CC=C(C)C)C=CC(C)(C)O4
Vero
  Activity: > 90%

## COc1c(OCc2cn(-c3cccc(C)c3)nn2)cc2oc3cc4c(c(O)c3c(=O)c2c1CC=C(C)C)C=CC(C)(C)O4
Vero
  Activity: > 90%

## COc1c(OCC#Cc2ccccc2Br)cc2oc3cc4c(c(O)c3c(=O)c2c1CC=C(C)C)C=CC(C)(C)O4
Vero
  Activity: > 90%

## COc1c(OCc2cn(-c3ccc(Br)cc3)nn2)cc2oc3cc4c(c(O)c3c(=O)c2c1CC=C(C)C)C=CC(C)(C)O4
Vero
  Activity: < 90%

## COc1c(OCc2cn(-c3cc(Cl)ccc3Cl)nn2)cc2oc3cc4c(c(O)c3c(=O)c2c1CC=C(C)C)C=CC(C)(C)O4
[1]
  CC50: 148 µM
Vero
  Activity: > 90%
Chikungunya virus [2]
  IC50: 1950 nM
Chikungunya virus [12]
  Activity: Active
Chikungunya virus [13]
  Activity: >90%
Chikungunya virus [3]
  Activity: Active; Largest Inhibitory Effect Was Observed
[5]
  selectivity ratio at 24 h: 76

## O=c1c2cc(O)c(O)cc2oc2cc(O)cc(O)c12
Vero
  Activity: > 90%

## COc1c(OCC#Cc2ccc(C#N)cc2)cc2oc3cc4c(c(O)c3c(=O)c2c1CC=C(C)C)C=CC(C)(C)O4
Vero
  Activity: > 90%

## O[C@H]1[C@H](O)[C@@H](O)[C@H](O)[C@@H](O)[C@H]1O [INOSITOL]
Vero
  Activity: > 90%

## COc1c(OCC(=O)N2CCN(S(=O)(=O)c3ccc(C)cc3)CC2)cc2oc3cc4c(c(O)c3c(=O)c2c1CC=C(C)C)C=CC(C)(C)O4
Vero
  Activity: > 90%

## COc1c(O)cc2oc3cc(O)c4c(c3c(=O)c2c1CC=C(C)C)OC(C)(C)CC4
[1]
  CC50: 119 µM
Vero
  Activity: > 90%
Chikungunya virus [2]
  IC50: 29700 nM
Chikungunya virus [14]
  Activity: 7.62 log10FFU/ml
Chikungunya virus [10]
  Activity: 7.39 log10FFU/ml
Chikungunya virus [15]
  Activity: Active
[5]
  selectivity ratio at 24 h: 4.01

## COc1c(OCc2cn(-c3cccc(C(F)(F)F)c3)nn2)cc2oc3cc4c(c(O)c3c(=O)c2c1CC=C(C)C)C=CC(C)(C)O4
Vero
  Activity: > 90%

## COc1c(OCc2cn(-c3ccc(C)c(C)c3)nn2)cc2oc3cc4c(c(O)c3c(=O)c2c1CC=C(C)C)C=CC(C)(C)O4
Vero
  Activity: > 90%

## Oc1cc(O)c2c(c1)O[C@@H](c1ccc(O)c(O)c1)[C@@H](O)C2 [(+)-EPICATECHIN]
[1]
  CC50: 206 µM
Vero
  Activity: > 90%
Chikungunya virus [2]
  IC50: 8650 nM
Chikungunya virus [14]
  Activity: 7.45 log10FFU/ml
Chikungunya virus [7]
  Activity: ~7.4 log10FFU/ml
Chikungunya virus [15]
  Activity: Active
[5]
  selectivity ratio at 24 h: 23.8

## CC(C)=CCc1c(O)c(CC=C(C)C)c2oc3c(O)ccc(O)c3c(=O)c2c1O [GARTANIN]
[1]
  CC50: 7.71 µM
Vero
  Activity: > 90%
Chikungunya virus [2]
  IC50: 3730 nM
Chikungunya virus [11]
  Activity: 7.42 log10FFU/ml
[5]
  selectivity ratio at 24 h: 2.07

## COc1c(OCC(=O)N2CCN(S(=O)(=O)c3ccc(Br)cc3)CC2)cc2oc3cc4c(c(O)c3c(=O)c2c1CC=C(C)C)C=CC(C)(C)O4
Vero
  Activity: > 90%

## COc1c(OCC#Cc2cccc(C(F)(F)F)c2)cc2oc3cc4c(c(O)c3c(=O)c2c1CC=C(C)C)C=CC(C)(C)O4
Vero
  Activity: > 90%

## COc1c(OCc2cn(-c3c(C)cc(C)cc3C)nn2)cc2oc3cc4c(c(O)c3c(=O)c2c1CC=C(C)C)C=CC(C)(C)O4
Vero
  Activity: < 90%

## COc1c(OCC#Cc2ccc(Cl)cc2)cc2oc3cc4c(c(O)c3c(=O)c2c1CC=C(C)C)C=CC(C)(C)O4
Vero
  Activity: > 90%

## COc1c(OCC#Cc2ccc(I)cc2)cc2oc3cc4c(c(O)c3c(=O)c2c1CC=C(C)C)C=CC(C)(C)O4
Vero
  Activity: > 90%

## COc1c(OCc2cn(-c3c(C)cccc3C)nn2)cc2oc3cc4c(c(O)c3c(=O)c2c1CC=C(C)C)C=CC(C)(C)O4
Vero
  Activity: > 90%
Chikungunya virus [4]
  Activity: Active
